This is an account of results in patent US20260062412A1, “NITROGEN-CONTAINING HETEROCYCLIC COMPOUND HAVING MYT1 INHIBITORY ACTIVITY” (CHUGAI SEIYAKU KABUSHIKI KAISHA, priority 2023, published 2026).

For assay [1], the target named is T1, MYT1 protein (Homo sapiens (Human), UniProt Q99640). Put plainly: MYT1 kinase activity inhibition test (ELISA, phosphorylation of Y15 of CDK1). The assay is classed as biochemical. Conditions: phosphorylation level of Y15 of CDK1 protein caused by MYT1 protein, 60 minutes. The procedure:
The MYT1 kinase activity inhibitory capacity of each compound was evaluated by evaluating the phosphorylation level of Y15 of CDK1 protein caused by MYT1 protein, by ELISA. The kit of CycLex Weel Kinase Assay/Inhibitor Screening Kit Ver. 3 (manufactured by MBL, CY-1172V3) was used. Using Kinase Buffer, 10 μL of 5 nM MYT1 protein (manufactured by Carna Biosciences, Inc.) was prepared. In addition, 30 μL of 83.3 μM of ATP was prepared using Kinase Buffer. In addition, 10 μL of each compound was diluted to each concentration using Kinase Buffer. 30 μL of ATP was added to the plate of the kit, and thereafter, 10 μL of each compound was added thereto. Further, 10 μL of the diluted MYT1 protein solution was added thereto, and then the mixture was mixed, which was allowed to stand at room temperature for 60 minutes. The reaction solution was removed from each well, and each well was washed using Wash Buffer. After Wash Buffer was removed, 100 μL of HRP conjugated Anti-phospho-tyrosine antibody was added to each well, which was allowed to stand at room temperature for 60 minutes. Thereafter, the reaction solution was removed from each well, and each well was washed using Wash Buffer. After Wash Buffer was removed, 100 μL of Substrate Reagent was added to each well, which was allowed to stand at room temperature for 8 minutes. Thereafter, 100 μL of Stop Solution (1 N sulfuric acid) was added to each well according to the manual. Absorbances at 450 nm and 590 nm were measured using Envision (manufactured by PerkinElmer). The phosphorylation level of CDK1 protein was evaluated for each well by subtracting the absorbance at 590 nm from the absorbance at 450 nm. The inhibition rate of each compound added at each concentration was calculated by setting the signal when the compound was not added as 100% and the signal when MYT1 protein was not added as 0%, and the calculation results of IC50 were shown in Table 4.
(In general: ELISA stands for enzyme-linked immunosorbent assay.)

The next assay deals with LU65. Kind of assay: Cytotoxicity test with pemetrexed upon addition of each example compound (CellTiter-Glo). Type of assay: cell-based, human. The note with it: combination with pemetrexed, LU65 cells, 7 days; maximum value, at the MYT1 inhibitor and pemetrexed concentrations. The method, then:
LU65 (received from human tissue bank (JCRB Cell Bank)) was used in the evaluation of the present invention. LU65 is a lung cancer cell line having a truncated deletion mutation of S82* in RB1 gene (see Nature. 2019 May; 569(7757): 503-508. (Non Patent Literature 22)), in which the function of RB1 is decreased. The cell culture was carried out using RPMI-1640 (manufactured by SIGMA) containing 10% FBS (manufactured by SIGMA).
Each pemetrexed (manufactured by Tokyo Kasei Kogyo Co., Ltd.) and each example compound of each concentration were diluted using a DMSO solution, and 0.04 μL of each of series of dilution and DMSO was added to each well of cell culture plate using Echo 555 Liquid Handler (manufactured by Beckman Coulter Inc.). 1000 LU65 cells ([…]) were added to each well, which was cultured at 37° C. in a 5% CO2 incubator for 7 days. Intracellular ATP level which is a cell survival marker was measured and used in the monitoring of cell number. After culturing, 20 μL of CellTiter-Glo (registered trademark) 2.0 (manufactured by Promega) was added to each well, and the emission intensity was measured using Multimode Plate Reader En Vision (registered trademark) Xcite (manufactured by PerkinElmer). The cell survival rate under each condition was calculated by setting the value obtained by subtracting the luminescence of the cell unseeded well from the luminescence of the DMSO-added well as 100%, and calculating the proportion of a value obtained by subtracting the luminescence of the cell unseeded well from the luminescence detected at each well.
In addition, the cytotoxic activity under each condition was calculated by subtracting the survival rate in a combination of pemetrexed of each treatment concentration and each example compound of each treatment concentration, from 100%.
For orientation: Cellular ATP, detected with luciferase, serves as a proxy for viable cell number.

Assay [2] concerns the target T1, MYT1 protein. Kind of assay: Test for binding to ATP binding site of MYT1 (Kinase Tracer 178 / Eu-Anti-GST antibody TR-FRET). Conditions: ATP binding site of MYT1, 30 minutes at room temperature. (TR-FRET usually uses a lanthanide donor and a delayed reading to cut background.)

T1 sequence (Q99640 whole entry): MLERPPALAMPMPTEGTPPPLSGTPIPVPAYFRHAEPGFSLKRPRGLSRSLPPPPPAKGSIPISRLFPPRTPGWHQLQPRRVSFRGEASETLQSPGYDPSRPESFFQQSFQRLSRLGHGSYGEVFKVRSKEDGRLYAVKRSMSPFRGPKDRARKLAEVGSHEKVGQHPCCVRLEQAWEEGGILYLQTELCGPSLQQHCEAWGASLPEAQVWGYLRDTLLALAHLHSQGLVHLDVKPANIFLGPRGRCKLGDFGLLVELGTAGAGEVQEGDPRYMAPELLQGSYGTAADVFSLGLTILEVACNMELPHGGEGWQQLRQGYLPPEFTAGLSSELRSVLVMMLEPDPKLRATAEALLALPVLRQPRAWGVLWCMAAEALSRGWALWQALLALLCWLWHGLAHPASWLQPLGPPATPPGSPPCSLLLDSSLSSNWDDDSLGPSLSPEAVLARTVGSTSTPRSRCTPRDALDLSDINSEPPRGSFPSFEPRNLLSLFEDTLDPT

The term IC50 denotes the concentration at which inhibition is half-maximal. A lower IC50 goes with greater potency. As for `Nc1c(-c2ccc(F)c3[nH]ncc23)c2cc(C3CCN(C4COC4)CC3)c3ncccc3c2[nH]c1=O` [Compound C135, 3-Amino-4-(7-fluoro-1H-indazol-4-yl)-6-[1-(oxetan-3-yl)piperidin-4-yl]-1H-1,7-phenanthrolin-2-one], the IC50 on MYT1 protein [1] was less than 4.6 nM; on MYT1 protein [2] it was 2.3 nM. Moreover, the “Bliss Score (Max)” value with LU65 was determined as 48%. In the assay with LU65, the “HSA Score (MAX)” value is 58%.

As for `Nc1c(-c2ccc(Cl)c3[nH]ncc23)c2cc(C3CC3)c3ncccc3c2[nH]c1=O` [Compound C143, 3-Amino-4-(7-chloro-1H-indazol-4-yl)-6-cyclopropyl-1H-1,7-phenanthrolin-2-one], the 50% inhibitory concentration (IC50) on MYT1 protein [1] was found to be 0.2 nM. Further, in the assay on LU65, the “Bliss Score (Max)” value stood at 50% and the “HSA Score (MAX)” value is reported as 67%. The IC50 on MYT1 protein [2] amounted to 2.7 nM.

For `Cc1cc2c(-c3cc(F)c(F)c4[nH]ncc34)c(N)c(=O)[nH]c2c2cccnc12` [Compound C190, 3-amino-4-(6,7-difluoro-1H-indazol-4-yl)-6-methyl-1H-1,7-phenanthrolin-2-one], the values for the IC50 against MYT1 protein [1] and at MYT1 protein [2] were 0.34 nM and 2.5 nM, respectively. In addition, the “Bliss Score (Max)” value in the assay on LU65 is listed as 48%. Further, the “HSA Score (MAX)” value in the assay with LU65 is on record as 66%.

For the molecule `Nc1c(-c2ccc(Cl)c3[nH]ncc23)c2cc(C3CC3)c3ccccc3c2[nH]c1=O` [Compound B37, 3-Amino-4-(7-chloro-1H-indazol-4-yl)-6-cyclopropyl-1H-benzo[h]quinolin-2-one], the IC50 at MYT1 protein [1] was 0.75 nM. For the same molecule, in the assay with LU65, the “Bliss Score (Max)” value came out at 31% and the “HSA Score (MAX)” value is listed as 34%. Also, the IC50 at MYT1 protein [2] was 6 nM.

For the molecule `Nc1c(-c2ccc(F)c3[nH]ncc23)c2cc(C3CCC3)c3ncccc3c2[nH]c1=O` [Compound C91, 3-Amino-6-cyclobutyl-4-(7-fluoro-1H-indazol-4-yl)-1H-1,7-phenanthrolin-2-one], the half-inhibitory concentration (IC50) against MYT1 protein [1] is 1.1 nM. Also, in the assay with LU65, the “Bliss Score (Max)” value came out at 59% and the “HSA Score (MAX)” value came to 61%. This molecule also gave an IC50 on MYT1 protein [2] of 10 nM.

Turning to `CCOc1cc2c(-c3ccc(F)c4[nH]ncc34)c(N)c(=O)[nH]c2c2cccnc12` [Compound C8, 3-Amino-6-ethoxy-4-(7-fluoro-1H-indazol-4-yl)-1H-1,7-phenanthrolin-2-one], the IC50 against MYT1 protein [1] was found to be 0.3 nM; at MYT1 protein [2], 1.6 nM. In the assay on LU65, the “Bliss Score (Max)” value is 68%. Moreover, the “HSA Score (MAX)” value with LU65 is listed as 78%.

On to `Nc1c(-c2ccc(F)c3[nH]ncc23)c2cc(C3CC3)c3ncccc3c2[nH]c1=O` [Compound C84, 3-amino-6-cyclopropyl-4-(7-fluoro-1H-indazol-4-yl)-1H-1,7-phenanthrolin-2-one], for which the IC50 against MYT1 protein [1] was 0.25 nM; at MYT1 protein [2], 2.3 nM. Also, in the assay on LU65, the “Bliss Score (Max)” value was found to be 68%. Also, the “HSA Score (MAX)” value in the assay with LU65 came to 70%.

With `Cn1cc(-c2cc3c(-c4ccc(F)c5[nH]ncc45)c(N)c(=O)[nH]c3c3cccnc23)cn1` [Compound C88, 3-Amino-4-(7-fluoro-1H-indazol-4-yl)-6-(1-methylpyrazol-4-yl)-1H-1,7-phenanthrolin-2-one], the figures for the IC50 at MYT1 protein [1] and on MYT1 protein [2] were less than 0.17 nM and 4.4 nM, respectively. For the same molecule, the “Bliss Score (Max)” value with LU65 is reported as 53%. Also, in the assay on LU65, the “HSA Score (MAX)” value amounted to 61%.

On MYT1 protein [1], `Nc1c(-c2ccc(F)c3[nH]ncc23)c2cc(C3CCCC3)c3ncccc3c2[nH]c1=O` [Compound C92, 3-Amino-6-cyclopentyl-4-(7-fluoro-1H-indazol-4-yl)-1H-1,7-phenanthrolin-2-one] returned an IC50 of 1.7 nM. In the assay with LU65, the “Bliss Score (Max)” value stood at 56% and the “HSA Score (MAX)” value is listed as 68%. For the same molecule, at MYT1 protein [2], the IC50 is 19 nM.

Molecule `Nc1c(-c2ccc(F)c3[nH]ncc23)c2cc(C3CC3)c3ccccc3c2[nH]c1=O` [Compound B22, 3-Amino-6-cyclopropyl-4-(7-fluoro-1H-indazol-4-yl)-1H-benzo[h]quinolin-2-one] returned an IC50 against MYT1 protein [1] of 0.25 nM. Moreover, in the assay on LU65, the “Bliss Score (Max)” value came out at 56% and the “HSA Score (MAX)” value amounted to 64%. This molecule also showed an IC50 on MYT1 protein [2] of 11 nM.

Molecule `Nc1c(-c2ccc(F)c3[nH]ncc23)c2cc(C3CCOCC3)c3ncccc3c2[nH]c1=O` [Compound C98, 3-Amino-4-(7-fluoro-1H-indazol-4-yl)-6-(oxan-4-yl)-1H-1,7-phenanthrolin-2-one] registered an IC50 on MYT1 protein [1] of less than 4.6 nM. In the assay with LU65, the “Bliss Score (Max)” value is recorded as 46% and the “HSA Score (MAX)” value came to 53%. Also, the IC50 on MYT1 protein [2] is 2.8 nM.

As to `Nc1c(-c2ccc(F)c3[nH]ncc23)c2cc(F)c3ccccc3c2[nH]c1=O` [Compound B35, 3-Amino-6-fluoro-4-(7-fluoro-1H-indazol-4-yl)-1H-benzo[h]quinolin-2-one], on MYT1 protein [1], half-maximal inhibition (IC50) was put at 0.44 nM. Further, in the assay on LU65, the “Bliss Score (Max)” value is on record as 61% and the “HSA Score (MAX)” value is given as 70%. In addition, the IC50 at MYT1 protein [2] turned out to be 3.7 nM.

For the molecule `CN1CCC(c2cc3c(-c4ccc(F)c5[nH]ncc45)c(N)c(=O)[nH]c3c3cccnc23)CC1` [Compound C138, 3-Amino-4-(7-fluoro-1H-indazol-4-yl)-6-(1-methylpiperidin-4-yl)-1H-1,7-phenanthrolin-2-one], the IC50 against MYT1 protein [1] is less than 4.6 nM. In the assay on LU65, the “Bliss Score (Max)” value turned out to be 73% and the “HSA Score (MAX)” value was found to be 73%. In addition, the IC50 on MYT1 protein [2] worked out at 2 nM.

In the case of `Nc1c(-c2ccc(F)c3[nH]ncc23)c2cc(F)c3ncccc3c2[nH]c1=O` [Compound C64, 3-Amino-6-fluoro-4-(7-fluoro-1H-indazol-4-yl)-1H-1,7-phenanthrolin-2-one], inhibition on MYT1 protein [1] was half-maximal at 0.2 nM (IC50). Further, in the assay with LU65, the “Bliss Score (Max)” value was 45% and the “HSA Score (MAX)” value came out at 54%. The same molecule yielded an IC50 at MYT1 protein [2] of 7.4 nM.

In turn, `Nc1c(-c2ccc(F)c3[nH]ncc23)c2cc(C3CCC3)c3ccccc3c2[nH]c1=O` [Compound B24, 3-Amino-6-cyclobutyl-4-(7-fluoro-1H-indazol-4-yl)-1H-benzo[h]quinolin-2-one] showed an IC50 on MYT1 protein [1] of 0.62 nM. In the assay on LU65, the “Bliss Score (Max)” value stood at 52% and the “HSA Score (MAX)” value stood at 60%. Further, the IC50 on MYT1 protein [2] amounted to 16 nM.

In the case of `Nc1c(-c2ccc(Cl)c3[nH]ncc23)c2ccc3ncccc3c2[nH]c1=O` [Compound C144, 3-Amino-4-(7-chloro-1H-indazol-4-yl)-1H-1,7-phenanthrolin-2-one], the IC50 was 0.32 nM against MYT1 protein [1] and 7 nM on MYT1 protein [2]. For the same molecule, the “Bliss Score (Max)” value with LU65 came to 39%. Besides, the “HSA Score (MAX)” value in the assay with LU65 is recorded as 47%.

`CC(C)(O)C#Cc1cc2c(-c3ccc(F)c4[nH]ncc34)c(N)c(=O)[nH]c2c2cccnc12` [Compound C102, 3-Amino-4-(7-fluoro-1H-indazol-4-yl)-6-(3-hydroxy-3-methylbut-1-inyl)-1H-1,7-phenanthrolin-2-one]: on MYT1 protein [1], the IC50 was less than 4.6 nM. Besides, in the assay on LU65, the “Bliss Score (Max)” value was found to be 36% and the “HSA Score (MAX)” value amounted to 49%. The molecule also displayed an IC50 on MYT1 protein [2] of 3.8 nM.

Regarding `Nc1c(-c2ccc(F)c3[nH]ncc23)c2cc(C3CC3)c3cccnc3c2[nH]c1=O` [Compound D2, 3-Amino-6-cyclopropyl-4-(7-fluoro-1H-indazol-4-yl)-1H-1,10-phenanthrolin-2-one], at MYT1 protein [1], half-maximal inhibition (IC50) was put at 15 nM. Moreover, in the assay with LU65, the “Bliss Score (Max)” value worked out at 42% and the “HSA Score (MAX)” value is 51%. Also, the IC50 at MYT1 protein [2] is 4 nM.

For the molecule `Nc1c(-c2ccc(F)c3[nH]ncc23)c2ccc3ncccc3c2[nH]c1=O` [Compound C83, 3-Amino-4-(7-fluoro-1H-indazol-4-yl)-1H-1,7-phenanthrolin-2-one], the IC50 came out at 0.2 nM on MYT1 protein [1] and 2.4 nM at MYT1 protein [2]. Besides, the “Bliss Score (Max)” value with LU65 was 54%. For the same molecule, the “HSA Score (MAX)” value in the assay with LU65 worked out at 66%.
